This note sets out measurements from US10583128B2, “Treatment of diseases related to alpha subunits of sodium channels, voltage-gated (SCNxA) with small molecules” (CuRNA, Inc., priority 2011, dated 2020).

For test [1], the system named is SCN1A mRNA. As to the kind of experiment: Upregulation of SCN1A mRNA in primary human skin fibroblasts carrying a Dravet-associated mutation (real time PCR). In kind it is cell-based. The following applies: Homo sapiens, Skin fibroblast, compound 1 uM, 24-48 h, 18S-normalized vs vehicle (DMSO), average upregulation, read-out: fold increase in SCN1A mRNA levels, SCN1A fibroblasts, Avg. On the procedure:
(§1) Transfer of a small molecule into a host cell or organism and determination of its effect upon RNA or protein up-regulation or down regulation can be assessed by several methods well known in the art. For example, SCN1A fibroblasts and/or keratinocytes or other cell types as desired are selected and grown for the specific assays herein. One day before the experiment cells are plated at the density of approximately 4×10^4/well into 24 well plates in Growth Media and incubated at 37° C. and 5% CO2 overnight. Next day, the media in the 24 well plates is changed to fresh Growth Media (1 ml/well) and the cells are dosed with small compounds. Compound stocks are prepared in DMSO at a concentration of 1 mM. At the time of the experiment 1 mM stock solutions are diluted to the concentration of 1 uM in Growth Media. One in 1000 dilution of DMSO is used for the control wells. After 24-48 h incubation at 37° C. and 5% CO2 the media is removed and RNA is extracted from the cells using SV Total RNA Isolation System from Promega (cat # Z3105) following the manufacturers' instructions. Six hundred nanograms of purified total RNA is added to the reverse transcription reaction performed using SuperScript VILO cDNA Synthesis Kit from Invitrogen (cat #11754-250) as described in the manufacturer's protocol. The cDNA from this reverse transcription reaction is used to monitor gene expression by real time PCR using ABI Taqman Gene Expression Mix (cat #4369510) and primers/probes designed by ABI (assays Hs00374696_ml, Hs00897350_ml or Hs00897341_ml for human SCN1A). The following PCR cycle is used: 50° C. for 2 min, 95° C. for 10 min, 40 cycles of (95° C. for 15 seconds, 60° C. for 1 min) using StepOne Plus Real Time PCR system (Applied Biosystems). The assay for 18S is manufactured by ABI (cat #4319413E). Fold change in gene expression after treatment with compounds is calculated based on the difference in 18S-normalized dCt values between compound- and vehicle-treated samples.
In Example 1 primary human skin fibroblasts carrying Dravet-associated SCN1A mutation were treated with small compounds at a final concentration of 1 uM.
Primary human skin fibroblasts carrying Dravet-associated SCN1A mutation introduced into culture by Dr. N. Kenyon (University of Miami) were grown in Growth Media consisting of a-MEM (Gibco, cat: 12561-056)+10% FBS (Mediatech, cat: 35-015 CV)+1% Antimycotic-Antibiotic (Gibco, cat: 15240-062) at 37° C. and 5% CO2. One day before the experiment cells were plated at the density of approximately 4×10^4/well into 24 well plates in Growth Media and incubated at 37° C. and 5% CO2 overnight. Next day, the media in the 24 well plates was changed to fresh Growth Media (I ml/well) and the cells were dosed with small compounds. All compounds were available from commercial sources. Compound stocks were prepared in DMSO at a concentration of 1 mM. At the time of the experiment 1 mM stock solutions were diluted to the concentration of 1 uM in Growth Media. One in 1000 dilution of DMSO was used for the control wells. After 24-48 h incubation at 37° C. and 5% CO2 the media was removed and RNA was extracted from the cells using SV Total RNA Isolation System from Promega (cat # Z3105) following the manufacturers' instructions. Six hundred nanograms of purified total RNA was added to the reverse transcription reaction performed using SuperScript VILO cDNA Synthesis Kit from Invitrogen (cat #11754-250) as described in the manufacturer's protocol. The cDNA from this reverse transcription reaction was used to monitor gene expression by real time PCR using ABI Taqman Gene Expression Mix (cat #4369510) and primers/probes designed by ABI (assays Hs00374696_ml, Hs00897350_ml or Hs00897341_ml for human SCN1A). Results obtained using all three assays were very similar (data not shown). […]

Test [2] relates to SCN1A mRNA. As to the kind of experiment: Upregulation of SCN1A mRNA in adult primary human keratinocytes (real time PCR). The test is classed as cell-based. The following applies: Homo sapiens, Keratinocyte, compound 1 uM, 24-48 h, 18S-normalized vs vehicle (DMSO), average upregulation, read-out: fold increase in SCN1A mRNA levels, Keratinocytes, Avg. How it is done: as §1
In Example 2 primary human keratinocytes were treated with small compounds at a final concentration of 1 uM.
Adult primary human keratinocytes from PromoCell (Heidelberg, Germany, cat # C-12003) or LifeLine Cell Technology (Frederick, Md., cat # FC-0025) were grown in Growth Media supplied by the manufacturers at 37° C. and 5% CO2. One day before the experiment cells were plated at the density of approximately 4×10^4/well into 24 well plates in Growth Media and incubated at 37° C. and 5% CO2 overnight. Next day, the media in the 24 well plates was changed to fresh Growth Media (1 ml/well) and the cells were dosed with small compounds. All compounds were available from commercial sources.
Compound stocks were prepared in DMSO at a concentration of 1 mM. At the time of the experiment 1 mM stock solutions were diluted to the concentration of 1 uM in Growth Media. One in 1000 dilution of DMSO was used for the control wells. After 24-48 h incubation at 37° C. and 5% CO2 the media was removed and RNA was extracted from the cells using SV Total RNA Isolation System from Promega (cat # Z3105) following the manufacturers' instructions. Six hundred nanograms of purified total RNA was added to the reverse transcription reaction performed using SuperScript VILO cDNA Synthesis Kit from Invitrogen (cat #11754-250) as described in the manufacturer's protocol. The cDNA from this reverse transcription reaction was used to monitor gene expression by real time PCR using ABI Taqman Gene Expression Mix (cat #4369510) and primers/probes designed by ABI (assays Hs00374696_ml, Hs00897350_ml or Hs00897341_ml for human SCN1A). Results obtained using all three assays were very similar (data not shown). The following PCR cycle was used: 50° C. for 2 min, 95° C. for 10 min, 40 cycles of (95° C. for 15 seconds, 60° C. for 1 min) using StepOne Plus Real Time PCR system (Applied Biosystems). The assay for 18S was manufactured by ABI (cat #4319413E). […]
(In general: In qPCR the cycle at which signal appears reflects the starting amount.)

As to `CC(=O)N1CCN(c2ccc(OCC3COC(Cn4ccnc4)(c4ccc(Cl)cc4Cl)O3)cc2)CC1` [Ketoconazole, 1-[4-(4-{[(2R,4S)-2-(2,4-Dichlorophenyl)-2-(1H-imidazol-1-ylmethyl)-1,3-dioxolan-4-yl]methoxy}phenyl)piperazin-1-ylethan-1-one], the fold induction at 1 µM stood at 2.95 in test [1] and 2.73 in test [2].
